This note sets out measurements from patent US9173838B2, “Reverse micelle compositions for delivery of metal cations comprising a diglyceride and a phytosterol and method of preparation” (MEDESIS PHARMA SA, priority 2004, dated 2015).

Data set [1] relates to adryamycin-induced inflammation/oedema in male Wistar rat leg. As to the kind of experiment: SOD like activity on rats: test with adryamycin (oedema by plethysmography). Format: in vivo. The procedure:
2—<<SOD Like>> Activity on Rats: Test with Adryamycin
The test with adryamycin is a specific test to highlight free anti-radicals activity of a substance. The product contains reverse micelles based on manganese prepared according to example 3.
One hour after injection in the leg of a male Wistar rat of 0.2 ml of a solution of adryamycin, a temporary inflammation appears for approximately 12 hours. A second inflammatory phase begins on the 3rd day and lasts for 5 days. The vascular hyperpermeability and the oedema which results therefrom, with a deterioration of the cells of endothelial membranes, are caused by the release of free radicals. […] The oedema is measured by plethysmography (expressed by % of pow volume).
3 batches of 10 rats are made up: • negative batch controls: olive oil administration (2 ml/kg) by rectal route • positive batch controls: administration of 100 mg/kg of diosmine • batch treated by NP 02 (manufactured according to example 3): 2 ml/kg by rectal route Results (SD Stands for Standard Deviation)—FIG. 3

A short description of data set [2]: Strontium amount in bone and plasma of growing rats (atomic absorption). The class given is in vivo, Wistar female rats. The conditions noted are these: end of 6 weeks treatment. The procedure: (§1) The animals are Wistar female rats of 200 g (average).
(§2) Homogeneous batches of 10 rats are made up starting from their weight.
(§3) The treatment is administered once per day during 6 weeks.
(§4) Administered batches and products: • control batch (administration of olive oil by rectal route) • SrCl2 batch (SrCl2 and strontium ranelate are known active ingredients for the osseous growth and treatment of osteoporosis). 68.2 mg of metal Sr/kg/day are administered by rectal route. • NP 05 A batch: product prepared according to example 4 of the invention, with 12.5 mg metal Sr/kg/day.
(§5) NP 05 B batch: product prepared according to example 5 of the invention, with 1.21 mg metal Sr/kg/day.
(§6) NP 05 C batch: product prepared according to example 6 of the invention, with 0.12 mg metal Sr/kg/day.
(§7) Parameters analyzed at the end of the treatment: • animals weight • measurement of the diameter of the rats femoral head after euthanasia and sampling (slide caliper under binocular magnifying glass) • Strontium amount in bone (by atomic absorption). • Strontium amount in plasma (by atomic absorption). Results

A further data set has as its system growing rats. As to the kind of experiment: Stimulation of the osseous growth on growing rats (femoral diameter). The following applies: once per day during 6 weeks, rectal route. Format: in vivo, Wistar female rats. The procedure:
3—Stimulation of the Osseous Growth on Growing Rats
The objective of this study is the assessment of a stimulation activity of the osseous growth in growing rats.
The product contains reverse micelles based on strontium prepared according to example 4.
as §1, §2, §3, §4, §5, §6, §7

Data set [3] has as its system fructose rats (non insulin dependent diabetes model). The data set can be described thus: Antidiabetic activity on fructose rats. The class given is in vivo. The conditions noted are these: for glycemia D 0: D0 before start of treatment (baseline); for glycemia D3: day 3 of daily treatment; for glycemia D7: day 7 of daily treatment; for glycemia D21: day 21 of daily treatment. An excerpt: 1—Antidiabetic Activity on Fructose Rats
The model of the fructose rats is a non insulin dependent diabetes (NIDD) similar to the observed human type 2 diabetes.
In this study, the NP 01 product contains reverse micelles based on vanadium, prepared according to example 2. Its therapeutic activity is compared with two reference drugs: Metformin and Rosiglitazone.
At D −21, after the period of stalling, rats are weighed and a blood sampling is made to determine the basal values of the biochemical parameters.
The rats are distributed randomly in groups of 10 rats. The drink water is then replaced by a solution of fructose 10% in distilled water. This solution is provided ad libitum for 21 days. They receive then again normal water for the following 21 days of the treatment.
At D 0, animals are weighed and a blood sampling is carried out.
The treatment then starts for a 21-day duration, with a daily administration: • Control group: 1 ml/kg of normal water per os • NP 01group: 2 ml/kg by the rectal route • Metformin group: 50 mg/kg of Metformin per os. • Rosiglitazone group: 5 mg/kg of Rosiglitazone per os
At D 21, blood sample and end of the treatment.

In the case of `COc1ccc(-c2cc(=O)c3c(O)cc(O[C@@H]4O[C@H](CO[C@@H]5O[C@@H](C)[C@H](O)[C@@H](O)[C@H]5O)[C@@H](O)[C@H](O)[C@H]4O)cc3o2)cc1O` [Positive control, diosmine], in data set [1], the “free anti-radicals activity (in words)” value was “free anti-radical activity similar to Manganese superoxydismutase”. Also, the “% of pow volume D1” value in data set [1] (Wistar rats, D1) was 106.7%. In addition, the “% of pow volume D2” value in data set [1] (Wistar rats, D2) is 120.8%. Also, the “% of pow volume D3” value in data set [1] (Wistar rats, D3) came out at 152.2%. Moreover, the “% of pow volume D4” value in data set [1] (Wistar rats, D4) is given as 163%. The “% of pow volume D5” value in data set [1] (Wistar rats, D5) turned out to be 177.6%. Also, the “% of pow volume D6” value in data set [1] (Wistar rats, D6) was found to be 177.5%. Besides, in data set [1] (Wistar rats, D7), the “% of pow volume D7” value was found to be 168.2%. Besides, the “% of pow volume D8” value in data set [1] (Wistar rats, D8) was 163.5%.

Compound `[Cl-].[Cl-].[Sr+2]` [SrCl2] yielded a Sr in bone in data set [2] of 1508.83 µg/g. Besides, in the data set on growing rats, the Femoral diameter is recorded as 3.93 mm.

With `CN(C)C(=N)N=C(N)N` [Metformin], in data set [3], the “glycemia D 0” value came to 10.64 mmol/L, the “glycemia D3” value is 10.63 mmol/L, the “glycemia D7” value was 9.68 mmol/L and the “glycemia D21” value is 8.91 mmol/L.

Take `CN(CCOc1ccc(CC2SC(=O)NC2=O)cc1)c1ccccn1` (stereo not shown) [Rosiglitazone]: in data set [3], the “glycemia D 0” value was 10.38 mmol/L, the “glycemia D3” value stood at 10.47 mmol/L, the “glycemia D7” value amounted to 9.37 mmol/L and the “glycemia D21” value came out at 9.13 mmol/L.
